Holding throughout (assay): Thermofluor thermal shift (Sypro orange)
Holding throughout (type): binding
On the technique in general: In DSF a fluorescence change marks the thermal transition of the protein.

Assay [1] concerns the target T1, GbpAHi (Haemophilus influenzae, UniProt P33950).
T1 construct: gene hbpA; soluble non-lipidated form; leader replaced by PelB; his-tag
The text has this: Thermofluor thermal shift (Sypro orange) on GbpAHi

For assay [2], the target named is T2, hbpA (Actinobacillus pleuropneumoniae, UniProt A3N3U8, C22M).
T2 construct: soluble non-lipidated form; mature start at position 22; C-terminal his-tag; E. coli, pET20b
Particulars: read-out: GbpAAp. The text has this:
Thermofluor thermal shift (Sypro orange) on GbpAAp

The target of assay [3] is T3, GbpAHp (Glaesserella parasuis, UniProt B8F653).
T3 construct: gene hbpA; non-lipoprotein; leader replaced by PelB; his-tag
T3 sequence (B8F653 23-531): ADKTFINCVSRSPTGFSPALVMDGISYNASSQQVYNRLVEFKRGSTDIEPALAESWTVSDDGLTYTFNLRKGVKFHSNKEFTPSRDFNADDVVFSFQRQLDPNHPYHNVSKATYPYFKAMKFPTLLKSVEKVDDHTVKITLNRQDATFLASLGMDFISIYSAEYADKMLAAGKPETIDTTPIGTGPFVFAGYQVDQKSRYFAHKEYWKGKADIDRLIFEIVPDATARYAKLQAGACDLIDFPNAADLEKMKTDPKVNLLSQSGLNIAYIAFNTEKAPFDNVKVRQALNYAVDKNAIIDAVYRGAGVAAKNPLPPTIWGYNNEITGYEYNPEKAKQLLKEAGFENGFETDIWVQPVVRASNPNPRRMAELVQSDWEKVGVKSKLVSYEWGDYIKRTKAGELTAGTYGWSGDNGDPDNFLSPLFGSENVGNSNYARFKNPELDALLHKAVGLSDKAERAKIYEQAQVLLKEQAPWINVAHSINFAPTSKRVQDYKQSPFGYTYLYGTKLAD
The text has this:
Thermofluor thermal shift (Sypro orange) on GbpAHp

T1 sequence (P33950 19-547): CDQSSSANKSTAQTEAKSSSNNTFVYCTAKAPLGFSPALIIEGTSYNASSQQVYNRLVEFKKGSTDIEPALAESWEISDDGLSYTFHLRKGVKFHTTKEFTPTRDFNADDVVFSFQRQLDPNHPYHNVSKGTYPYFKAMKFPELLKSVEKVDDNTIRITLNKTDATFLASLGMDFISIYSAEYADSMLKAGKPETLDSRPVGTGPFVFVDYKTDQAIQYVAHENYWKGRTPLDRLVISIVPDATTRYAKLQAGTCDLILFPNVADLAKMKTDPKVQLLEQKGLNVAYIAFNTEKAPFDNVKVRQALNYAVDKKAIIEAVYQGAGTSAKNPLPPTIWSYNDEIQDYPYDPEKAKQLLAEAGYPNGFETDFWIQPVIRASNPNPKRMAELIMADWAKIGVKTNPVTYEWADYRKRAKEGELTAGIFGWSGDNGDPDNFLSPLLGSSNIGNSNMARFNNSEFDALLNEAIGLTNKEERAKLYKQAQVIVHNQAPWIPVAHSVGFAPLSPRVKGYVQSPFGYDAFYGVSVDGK
T2 sequence (A3N3U8 22-545 C22M): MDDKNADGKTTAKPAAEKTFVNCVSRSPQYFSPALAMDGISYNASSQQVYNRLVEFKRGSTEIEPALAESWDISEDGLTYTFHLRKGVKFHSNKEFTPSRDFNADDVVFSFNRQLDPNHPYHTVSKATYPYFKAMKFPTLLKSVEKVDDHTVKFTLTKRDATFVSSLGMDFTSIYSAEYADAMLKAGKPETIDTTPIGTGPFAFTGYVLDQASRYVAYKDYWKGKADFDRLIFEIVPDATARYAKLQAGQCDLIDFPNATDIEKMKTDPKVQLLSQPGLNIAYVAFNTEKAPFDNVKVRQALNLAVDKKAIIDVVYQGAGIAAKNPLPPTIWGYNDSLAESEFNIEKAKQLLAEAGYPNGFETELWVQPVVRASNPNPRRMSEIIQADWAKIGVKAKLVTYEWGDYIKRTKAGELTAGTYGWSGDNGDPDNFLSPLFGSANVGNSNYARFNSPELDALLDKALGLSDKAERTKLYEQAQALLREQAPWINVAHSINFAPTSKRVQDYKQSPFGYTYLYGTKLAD

Take `CSC[C@H](NC(=O)CC[C@H](N)C(=O)O)C(=O)NCC(=O)O` [S-methylglutathione]: the ΔTm at 1000 µM in assay [1] turned out to be 10.5 °C.

As to `N[C@@H](CCC(=O)N[C@@H](CS)C(=O)NCC(=O)O)C(=O)O` [GSH], the ΔTm at 1000 µM in assay [1] was found to be 12.5 °C.

With `N[C@@H](CCC(=O)N[C@@H](CSSC[C@H](N)C(=O)O)C(=O)NCC(=O)O)C(=O)O` [glutathione cysteine disulfide], the ΔTm at 1000 µM in assay [1] stood at 10 °C; in assay [2], 6 °C; in assay [3], 7 °C.

Consider `N[C@@H](CCC(=O)N[C@@H](CSN=O)C(=O)NCC(=O)O)C(=O)O` [S-nitrosoglutathione], for which the ΔTm at 1000 µM in assay [1] stood at 7 °C; in assay [2], 6.5 °C; in assay [3], 9.5 °C.
